Results as given in patent US20250360111A1, “COMPOSITIONS OF AGPAT4 INHIBITORS AND METHODS OF USING THEREOF TO TREAT CANCER” (The University of Hong Kong, priority 2024, published 2025).
Where two headings read alike, the source gives them in different places.

Columns and labels:
[1] = test system: HCC cells (Huh7); assay: Rescue and PA addition experiments: migration, invasion, limiting dilution spheroid formation, western blot; type: cell-based, human; conditions: exogenous PA added to HCC cells
Experimental: Cells at limited dilutions were cultured in 100 μL serum-free DM E M/F12 medium (Invitrogen) supplemented with 20 ng/mL human recombinant epidermal growth factor (Sigma-Aldrich), 10 ng/mL human recombinant basic fibroblast growth factor (Sigma-Aldrich), […] (Sigma-Aldrich), B27 (1:50; Invitrogen), 500 U/mL penicillin, […] (Invitrogen), and 0.25% methylcellulose (Sigma-Aldrich). Cells were cultured in suspension in polyHEMA-coated 96-well plates. The cells were replenished with 30 μL of the supplemented medium every second day. The wells were monitored for sphere formation for 7-10 days. The tumor-initiating cell frequency was calculated using extreme limiting dilution analysis.
Cells were lysed in RIPA buffer (Cell Signalling Technology) containing a complete protease inhibitor cocktail (Roche) and PMSF (Sigma-Aldrich). Protein lysates were quantified and resolved on an SDS-PAGE gel, transferred onto a PV DF membrane (Pall), immunoblotted with a primary antibody, and incubated with a secondary antibody. The antibody signal was detected using the A mersham ECL Select Western Blotting Detection Reagent (GE Healthcare). […]

[2] = target: T1, AGPAT4 (Homo sapiens, UniProt Q9NRZ5, C228A); assay: Competitive gel-based ABPP in live cells with CL26-alkyne probe; type: cell-based; conditions: Huh7 cells, AGPAT4 C228A mutation
T1 construct: The open reading frame (ORF) encoding the mRNA of AGPAT4 was cloned into the pDONR-221 donor vector; expressed in transfected cells; host or cells: Huh7
T1 sequence (Q9NRZ5 1-378 C228A): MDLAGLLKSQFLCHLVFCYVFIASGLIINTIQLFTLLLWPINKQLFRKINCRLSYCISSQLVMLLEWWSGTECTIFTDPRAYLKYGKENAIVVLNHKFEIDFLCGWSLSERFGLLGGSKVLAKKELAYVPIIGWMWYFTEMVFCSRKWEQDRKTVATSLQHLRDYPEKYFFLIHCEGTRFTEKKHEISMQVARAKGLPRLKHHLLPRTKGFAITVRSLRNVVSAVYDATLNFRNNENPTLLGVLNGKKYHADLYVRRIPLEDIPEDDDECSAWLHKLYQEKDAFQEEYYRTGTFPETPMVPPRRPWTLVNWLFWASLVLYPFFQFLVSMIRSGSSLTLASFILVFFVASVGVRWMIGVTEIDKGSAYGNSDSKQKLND
Experimental: An in-gel fluorescence assay was performed to investigate the protein targets of CL26. Huh7 cells overexpressing AGPAT4 or cysteine mutants were pre-treated with CL26 at the indicated concentrations for 2 h, followed by CL26-alkyne (1 μM) treatment for another 2 h. Cells were harvested in RIPA buffer supplemented with protease and phosphatase inhibitors (Thermo Fisher Scientific #A32961). The proteins were precipitated by incubation with 6× volume of pre-chilled acetone at −20° C. overnight. Proteins were pelleted by centrifugation at 5000 g for 10 min and resuspended in PBS. The protein content was measured using the BCA assay and normalized to 2 mg/mL. Cell lysates (50 μL) were labelled with azide-fluor 545 by click reaction (final reaction mixture: azide-fluor 545 (25 μM), copper(II) sulfate (1 mM), TBTA (100 μM), and freshly prepared TCEP (1 mM)) at room temperature with constant agitation. After incubation for 1 h, the reaction was quenched with the sampling buffer and boiled at 90° C. for 5 min. Samples were subjected to SDS-PAGE, in-gel fluorescence was captured using ChemiDoc MP (Bio-Rad), and Coomassie Blue staining was performed. Similarly, immunoblotting was used to investigate the protein targets of CL26. Huh7 cells stably transfected with FLAG-AGPAT4 were pre-treated with either the solvent control or CL26 at the indicated concentrations for 2 h, followed by CL26-alkyne (10 μM) treatment for another 2 h. Cells were harvested, and lysates were prepared as described above unless specified. Anti-FLAG M 2 affinity beads were added in FLAG-tag pull-down experiments. After 4 h of incubation at 4° C., the beads were washed with TBS-T and resuspended in TBS-T. Sampling buffer was added and the samples were boiled for protein elution. The samples were subjected to SDS-PAG E and imaged for fluorescence signals before western blot analysis. In the probe pull-down experiment, 1 mL of lysate was labelled with desthiobiotin (DTB)-azide by a click reaction (final reaction mixture: copper(II) sulfate (1 mM), TBTA (100 μM), DTB-PEG-azide (100 μM), and freshly prepared TCEP (1 mM)). […]

[3] = test system: AGPAT LPAAT family members (AGPAT1, 2, 3, 4 and 5); assay: Isoform specificity: streptavidin pulldown and immunoblotting of CL26-alkyne-bound proteins; type: cell-based, human; conditions: Huh7 cells, DTB-PEG-azide, streptavidin pulldown
Experimental: An in-gel fluorescence assay was performed to investigate the protein targets of CL26. Huh7 cells overexpressing AGPAT4 or cysteine mutants were pre-treated with CL26 at the indicated concentrations for 2 h, followed by CL26-alkyne (1 μM) treatment for another 2 h. Cells were harvested in RIPA buffer supplemented with protease and phosphatase inhibitors (Thermo Fisher Scientific #A32961). The proteins were precipitated by incubation with 6× volume of pre-chilled acetone at −20° C. overnight. Proteins were pelleted by centrifugation at 5000 g for 10 min and resuspended in PBS. The protein content was measured using the BCA assay and normalized to 2 mg/mL. Cell lysates (50 μL) were labelled with azide-fluor 545 by click reaction (final reaction mixture: azide-fluor 545 (25 μM), copper(II) sulfate (1 mM), TBTA (100 μM), and freshly prepared TCEP (1 mM)) at room temperature with constant agitation. After incubation for 1 h, the reaction was quenched with the sampling buffer and boiled at 90° C. for 5 min. Samples were subjected to SDS-PAGE, in-gel fluorescence was captured using ChemiDoc MP (Bio-Rad), and Coomassie Blue staining was performed. Similarly, immunoblotting was used to investigate the protein targets of CL26. […] The samples were subjected to SDS-PAG E and imaged for fluorescence signals before western blot analysis. […]

[4] = test system: advanced HCC; conditions: advanced unresectable HCC, cited from earlier work
[5] = test system: NRAS+AKT-driven HCC; assay: NRAS+AKT HTVI HCC mouse model, AAV8-shAgpat4 and sorafenib; type: in vivo, C57BL/6 mice; conditions: sorafenib alone, control (NTC) group
Experimental: Six- to eight-week-old male wildtype C57BL/6 mice (Jackson Laboratory) were used in this study. HTVI procedure was carried out as previously described (41, 42). Briefly, 20 μg of plasmids encoding human AKT1 (myristylated AKT1 or myr-AKT1) and human neuroblastoma Ras viral oncogene homolog (N-RasV12) along with sleeping beauty (SB) transposase at a ratio of 25:1 was diluted in 2 ml of saline (0.9% NaCl), filtered through a 0.22 μm filter and injected into the lateral tail vein of C57BL/6 mice in 5-7 s.
Four weeks after hydrodynamic tail vein injection of proto-oncogenes and SB transposase, the mice were separated into two groups and administered 1×10^11 transducing units of AAV8 virus encoding either shNTC or shAgpat4 in 100 μL PBS via tail vein injection. At 5.5 weeks, mice were administered another dose of the shNTC or shAgpat4 AAV8 virus. Mouse shNTC and mouse shAgpat4 target sequences were cloned into the LV3 vector: 5′-[…] TTTG-3′ (SEQ ID NO:1) and 5′-[…] […]-3′ (SEQ ID NO:2), respectively.
Sorafenib (30 mg/kg/day, delivered orally daily) administration began at 2-3 weeks post HTVI injection, at which point tumors started to develop. Sorafenib treatment lasted for 2.5 weeks, when tumors became non-responsive to the treatment (21). […] Tumor-bearing mice were euthanized at the humane endpoint.

[6] = test system: HCC; conditions: cited from earlier work
[7] = test system: HCC; conditions: Asian study; cited from earlier work
[8] = test system: HCC; conditions: cited from earlier work; remark: listed apart in the source
[9] = test system: MHCC97L cells; assay: Orthotopic metastasis model, MHCC97L cells with AGPAT4 shRNA; type: in vivo, BALB/c nude mice; conditions: MHCC97L cells injected intrahepatically, n=7 per group
Experimental: Metastasis was assessed by orthotopic injection into the liver to observe extrahepatic metastasis to the lungs. […] Six to eight weeks after implantation, mice were administered 100 mg/kg D-luciferin (Gold Biotechnology) via peritoneal injection 5 min before bioluminescence imaging (IV IS 100 Imaging System, Xenogen). The livers and lungs were harvested for ex vivo imaging and histological analyses. The metastatic nodules in the lungs were counted.

Molecule: 18:1 phosphatidic acid [PA]
- self-renewal, migration and invasion capacities [1]: markedly enhanced the self-renewal, migration, and invasion capacities of HCC cells

Molecule: C#CCCCN(Cc1ccc(-c2nc3ccccc3s2)o1)C(=O)CCl [CL26-alkyne]
- CL26-alkyne binding to AGPAT4 cysteine mutant (fluorescence signal) [2]: complete abolishment of the fluorescence signal
- specificity for AGPAT4 over other AGPAT LPAAT family members [3]: AGAPT4 was the only protein bound

Molecule: CO[C@H]1C[C@@H]2CC[C@@H](C)[C@@](O)(O2)C(=O)C(=O)N2CCCC[C@H]2C(=O)O[C@H]([C@H](C)C[C@@H]2CC[C@@H](OCCO)[C@H](OC)C2)CC(=O)[C@H](C)/C=C(\C)[C@@H](O)[C@@H](OC)C(=O)[C@H](C)C[C@H](C)/C=C/C=C/C=C/1C [everolimus]
- median progression free survival ([4]; 28 patients): 3.8 months
- overall survival [4]: 8.4 months

Molecule: CNC(=O)c1cc(Oc2ccc(NC(=O)Nc3ccc(Cl)c(C(F)(F)F)c3)cc2)ccn1 [sorafenib]
- Agpat4 and p-mTOR expression in tumors [5]: increase in Agpat4 and p-mTOR expression
- median overall survival ([6]; SHARP trial): 10.7 months
- tolerability ([6]; phase III trials): generally well tolerated
- median overall survival [7]: 6.5 months
- time to radiological progression under treatment ([8]; HCC): 4-5 months
- expansion of patient median survival ([8]; first-line treatment of HCC): approximately 3 months

Molecule: sh82: shRNA clone targeting human AGPAT4, clone ID NM_020133.3 (guide CCGGAUGAUUGGUGUGACGGAAAUUCUCGAGAAUUUCCGUCACACCAAUCAUUUUUUG)
- tumors developing extrahepatic metastases in the lung [9]: 0
- tumors formed in the liver [9]: 5 of 7

Molecule: sh83: second independent shRNA clone targeting human AGPAT4, printed sh83 in b403 (guide CCGGGUGAUCAUAGAAAGGGUAUUUCUCGAGAAAUACCCUUUCUAUGAUCACUUUUUG)
- tumors developing extrahepatic metastases in the lung [9]: 0
- tumors formed in the liver [9]: 7 of 7
